Results from patent US20230092163A1, “COMPOUNDS AND COMPOSITIONS FOR TREATING CONDITIONS ASSOCIATED WITH STING ACTIVITY” (IFM Due, Inc., priority 2019, published 2023).

biological target: STING (Homo sapiens, UniProt Q86WV6, G230A/H232R/R293Q/R71H); experiment: STING reporter assay: THP1-Dual KO-IFNAR2 cells stimulated with 2′3′cGAMP, luciferase reporter activity; assay type: cell-based; conditions: 15 μM 2′3′cGAMP, 24h, class symbols
Method: STING pathway activation by the compounds described herein were measured using THP1-Dual™ cells (KO-IFNAR2).
THP1-Dual™ KO-IFNAR2 Cells (obtained from invivogen) were maintained in RPMI, 10% FCS, 5 ml P/S, 2 mM L-glut, 10 mM Hepes, and 1 mM sodium pyruvate. Compounds were spotted in empty 384 well tissue culture plates (Greiner 781182) by Echo for a final concentration of 0.0017-100 μM. Cells were plated into the TC plates at 40 μL per well, 2×10E6 cells/mL. For activation with STING ligand, 2′3′cGAMP (MW 718.38, obtained from Invivogen), was prepared in Optimem media.
The following solutions were prepared for each 1×384 plate: • Solution A: 2 mL Optimem with one of the following stimuli: • 60 uL of 10 mM 2′3′cGAMP ->150 μM stock • Solution B: 2 mL Optimem with 60 μL Lipofectamine 2000->Incubate 5 min at RT
2 mL of solution A and 2 ml Solution B was mixed and incubated for 20 min at room temperature (RT). 20 uL of transfection solution (A+B) was added on top of the plated cells, with a final 2′3′cGAMP concentration of 15 μM. The plates were then centrifuged immediately at 340 g for 1 minute, after which they were incubated at 37° C., 5% CO2, >98% humidity for 24h. Luciferase reporter activity was then measured. EC50 values were calculated by using standard methods known in the art.
Luciferase reporter assay: 10 μL of supernatant from the assay was transferred to white 384-plate with flat bottom and squared wells. One pouch of QUANTI-Luc™ Plus was dissolved in 25 mL of water. 100 μL of QLC Stabilizer per 25 mL of QUANTI-Luc™ Plus solution was added. 50 μL of QUANTI-Luc™ Plus/QLC solution per well is then added. Luminescence is measured on a Platereader (e.g., Spectramax I3X (Molecular Devices GF3637001)).
Luciferase reporter activity was then measured. EC50 values were calculated by using standard methods known in the art.

Sequence of STING (Q86WV6 whole entry R71H/G230A/H232R/R293Q): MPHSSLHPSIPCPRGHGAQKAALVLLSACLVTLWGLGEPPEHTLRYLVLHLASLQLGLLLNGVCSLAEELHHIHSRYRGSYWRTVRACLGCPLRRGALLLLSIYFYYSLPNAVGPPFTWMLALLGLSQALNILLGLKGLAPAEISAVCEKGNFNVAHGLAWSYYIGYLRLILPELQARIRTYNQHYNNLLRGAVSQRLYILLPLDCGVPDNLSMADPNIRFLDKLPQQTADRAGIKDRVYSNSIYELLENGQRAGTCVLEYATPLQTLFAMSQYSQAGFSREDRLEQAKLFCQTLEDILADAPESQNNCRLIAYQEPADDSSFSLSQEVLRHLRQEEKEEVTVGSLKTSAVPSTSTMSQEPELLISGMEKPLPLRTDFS

Row | EC50 [µM] | SMILES
1 | 0.2 to 1 | C[C@H](NC(=O)Nc1cc(Cl)c2cc[nH]c2c1)c1cc(Cl)cc(C(F)(F)F)c1 (single isomer, unassigned) [Compound 520]
2 | 0.04 to 0.2 | O=C(Nc1ccc(C(F)(F)F)cc1)Nc1ccc2cc[nH]c2c1 [Compound 101]
3 | 1 to 5 | O=C(Nc1ccc(C(F)(F)F)cc1)Nc1ccc2[nH]ccc2c1 [Compound 102]
4 | 5 to 100 | O=C(Nc1ccc(C(F)(F)F)cc1)Nc1cc2[nH]ccc2cn1 [Compound 110]
5 | 0.2 to 1 | O=C(Nc1ccc(C(F)(F)F)cc1)Nc1cnc2cc[nH]c2c1 [Compound 111]
6 | 5 to 100 | C#Cc1ccc(NC(=O)Nc2ccc3[nH]ccc3c2)cc1 [Compound 151]
7 | 0.2 to 1 | C#Cc1ccc(NC(=O)Nc2ccc3cc[nH]c3c2)cc1 [Compound 152]
8 | 0.2 to 1 | O=C(Nc1cc(F)cc(C(F)(F)F)c1)Nc1cc(Cl)c2cc[nH]c2c1 [Compound 153]
9 | 0.04 to 0.2 | O=C(Nc1ccc(C(F)(F)F)cc1)Nc1cc(Br)c2cc[nH]c2c1 [Compound 155]
10 | 1 to 5 | O=C(Nc1ccc(Oc2c(F)cccc2F)cc1)Nc1ccc2cc[nH]c2c1 [Compound 160]
11 | 5 to 100 | O=C(NCCC1CC1)Nc1ccc2cc[nH]c2c1 [Compound 162]
12 | 0.2 to 1 | O=C(Nc1ccc(F)c(F)c1)Nc1ccc2cc[nH]c2c1 [Compound 164]
13 | 0.2 to 1 | COC(=O)c1cc(NC(=O)Nc2ccc(C(F)(F)F)cc2)cc2[nH]ccc12 [Compound 165]
14 | 1 to 5 | O=C(Nc1ccc(C(F)(F)F)cc1)Nc1cc(-c2cn[nH]c2)c2cc[nH]c2c1 [Compound 167]
15 | 5 to 100 | O=C(Nc1cccc(S(=O)(=O)N2CCCC2)c1)Nc1ccc2cc[nH]c2c1 [Compound 168]
16 | 1 to 5 | O=C(Nc1ccc(C(F)(F)F)cc1)Nc1cc(-c2ccccc2)c2cc[nH]c2c1 [Compound 169]
17 | 1 to 5 | O=C(Nc1ccc2cc[nH]c2c1)Nc1ccc2cc[nH]c2c1 [Compound 170]
18 | 1 to 5 | CC(Cc1cccc(C(F)(F)F)c1)NC(=O)Nc1ccc2cc[nH]c2c1 (centres unmarked) [Compound 172]
19 | 0.2 to 1 | O=C(NCCc1c[nH]c2cc(OC(F)(F)F)ccc12)Nc1ccc2cc[nH]c2c1 [Compound 173]
20 | 5 to 100 | O=C(NCCN1CCC(Cc2ccccc2)CC1)Nc1ccc2cc[nH]c2c1 [Compound 174]
21 | 1 to 5 | O=C(NCCOc1cccc(Br)c1)Nc1ccc2cc[nH]c2c1 [Compound 175]
22 | 1 to 5 | O=C(NCc1ccc(OCC(F)(F)F)nc1)Nc1ccc2cc[nH]c2c1 [Compound 176]
23 | 1 to 5 | O=C(NCCCc1cncc(C(F)(F)F)c1)Nc1ccc2cc[nH]c2c1 [Compound 177]
24 | 1 to 5 | O=C(Nc1ccc2cc[nH]c2c1)NC1CCc2ccc(C(F)(F)F)cc21 (centres unmarked) [Compound 181]
25 | 0.2 to 1 | CC(C)c1ccc(-c2nnc(NC(=O)Nc3ccc4cc[nH]c4c3)s2)cc1 [Compound 182]
26 | 0.2 to 1 | O=C(NCCc1ccc(OC(F)(F)F)cc1)Nc1ccc2cc[nH]c2c1 [Compound 183]

Row | EC50 [µM] | SMILES
27 | 1 to 5 | Cc1ccc(CCNC(=O)Nc2ccc3cc[nH]c3c2)cc1C [Compound 186]
28 | 1 to 5 | CCCCCNC(=O)Nc1ccc2cc[nH]c2c1 [Compound 188]
29 | 1 to 5 | N#Cc1ccc(OC2CCC(NC(=O)Nc3ccc4cc[nH]c4c3)CC2)cc1 (centres unmarked) [Compound 195]
30 | 0.2 to 1 | O=C(Nc1ccc(C(F)(F)F)cc1)Nc1ccc2c(Br)c[nH]c2c1 [Compound 196]
31 | 5 to 100 | CN(C)S(=O)(=O)c1cccc(NC(=O)Nc2ccc3cc[nH]c3c2)c1 [Compound 198]
32 | 1 to 5 | CCC(NC(=O)Nc1ccc2cc[nH]c2c1)c1cccc(C(F)(F)F)c1 (centres unmarked) [Compound 199]
33 | 0.2 to 1 | O=C(Nc1ccc(S(=O)(=O)C(F)(F)F)cc1)Nc1ccc2cc[nH]c2c1 [Compound 200]
34 | 1 to 5 | O=C(NCCc1ncc(C(F)(F)F)cc1Cl)Nc1ccc2cc[nH]c2c1 [Compound 201]
35 | 5 to 100 | CN(C)S(=O)(=O)c1ccc(NC(=O)Nc2ccc3cc[nH]c3c2)cc1 [Compound 202]
36 | 1 to 5 | O=C(Nc1cccc(S(=O)(=O)C(F)(F)F)c1)Nc1ccc2cc[nH]c2c1 [Compound 203]
37 | 1 to 5 | O=C(NCCSCc1c(Cl)cccc1Cl)Nc1ccc2cc[nH]c2c1 [Compound 204]
38 | 0.2 to 1 | O=C(NCc1cc(Cl)cc(C(F)(F)F)c1)Nc1ccc2cc[nH]c2c1 [Compound 205]
39 | 1 to 5 | O=C(NCc1ccc(C(F)(F)F)c(Cl)c1)Nc1ccc2cc[nH]c2c1 [Compound 206]
40 | 1 to 5 | O=C(NCc1ccc(Cl)c(C(F)(F)F)c1)Nc1ccc2cc[nH]c2c1 [Compound 207]
41 | 0.2 to 1 | O=C(NCCc1ccc(Br)cc1)Nc1ccc2cc[nH]c2c1 [Compound 208]
42 | 1 to 5 | O=C(NCCc1c(F)cccc1Cl)Nc1ccc2cc[nH]c2c1 [Compound 209]
43 | 1 to 5 | O=C(NCCc1cccc(Cl)c1)Nc1ccc2cc[nH]c2c1 [Compound 210]
44 | 1 to 5 | O=C(NCCc1ccccc1Cl)Nc1ccc2cc[nH]c2c1 [Compound 211]
45 | 1 to 5 | Cc1ccccc1CCNC(=O)Nc1ccc2cc[nH]c2c1 [Compound 212]
46 | 1 to 5 | O=C(Nc1ccc2cc[nH]c2c1)N[C@@H]1C[C@H]1c1ccccc1 [Compound 214]
47 | 1 to 5 | CC(C)CCNC(=O)Nc1ccc2cc[nH]c2c1 [Compound 215]
48 | 5 to 100 | CC(C)(C)c1cc(NC(=O)Nc2ccc3cc[nH]c3c2)on1 [Compound 217]
49 | 5 to 100 | CC[C@H](NC(=O)Nc1ccc2cc[nH]c2c1)c1ccccc1 [Compound 222]
50 | 1 to 5 | Cc1ccccc1CNC(=O)Nc1ccc2cc[nH]c2c1 [Compound 224]
51 | 5 to 100 | Cc1cccc(CNC(=O)Nc2ccc3cc[nH]c3c2)c1 [Compound 225]
52 | 0.2 to 1 | O=C(Nc1ccc(Cl)c(F)c1)Nc1ccc2cc[nH]c2c1 [Compound 226]

same assay, conditions: 15 μM 2′3′cGAMP, 24h, numeric bounds

Row | EC50 [µM] | SMILES
53 | > 14.8 | CCCCc1ccc(Nc2c(Nc3ccc4cc[nH]c4c3)c(=O)c2=O)cc1 [Compound 113]
54 | > 30 | O=C(NCC1(c2cccc(Cl)c2)CCOCC1)Nc1ccc2cc[nH]c2c1 [Compound 154]
55 | > 30 | Cc1cc(NC(=O)Nc2ccc(C(F)(F)F)cc2)cc2c1ccn2-c1cn[nH]c1 [Compound 156]
56 | > 30 | O=C(Nc1ccc(C(F)(F)F)cc1)Nc1cc(CO)c2cc[nH]c2c1 [Compound 157]
57 | > 30 | N#Cc1ccc(CNC(=O)Nc2ccc3cc[nH]c3c2)c(C(F)(F)F)c1 [Compound 159]
58 | > 30 | O=C(Nc1ccc2cc[nH]c2c1)NC1Cc2ccccc2C1 [Compound 161]
59 | > 30 | O=C(Nc1ccc(C(F)(F)F)cc1)Nc1cc(C(=O)O)c2cc[nH]c2c1 [Compound 166]
60 | > 30 | CC1(CNC(=O)Nc2ccc3cc[nH]c3c2)CCC(F)(F)CC1 [Compound 171]
61 | > 30 | CC(C)(C)OC(=O)N1CC(CCNC(=O)Nc2ccc3cc[nH]c3c2)C1 [Compound 178]
62 | > 30 | CCS(=O)(=O)c1ccc(CNC(=O)Nc2ccc3cc[nH]c3c2)cn1 [Compound 179]
63 | > 30 | CCn1cc(CNC(=O)Nc2ccc3cc[nH]c3c2)cn1 [Compound 180]
64 | > 30 | O=C(NCCc1ccccc1Br)Nc1ccc2cc[nH]c2c1 [Compound 184]
65 | > 30 | Cc1cc(CNC(=O)Nc2ccc3cc[nH]c3c2)nn1C [Compound 185]
66 | > 30 | O=C(NCCc1ccccc1)Nc1ccc2cc[nH]c2c1 [Compound 187]
67 | > 30 | Cn1cc(NC(=O)Nc2ccc3cc[nH]c3c2)cn1 [Compound 189]
68 | > 30 | O=C(Nc1ccc2cc[nH]c2c1)Nc1ccon1 [Compound 190]
69 | > 30 | O=C(Nc1ccc2cc[nH]c2c1)Nc1ccno1 [Compound 191]
70 | > 30 | Cc1ccc(CNC(=O)Nc2ccc3cc[nH]c3c2)cc1 [Compound 192]
71 | > 30 | N#Cc1cc(F)cc(NC(=O)Nc2ccc3cc[nH]c3c2)c1 [Compound 193]
72 | > 30 | O=C(Nc1ccc2cc[nH]c2c1)Nc1ccccc1Cl [Compound 194]
73 | > 30 | Cn1cc(-c2cc(NC(=O)Nc3ccc(C(F)(F)F)cc3)cc3[nH]ccc23)cn1 [Compound 197]
74 | > 30 | CC(CNC(=O)Nc1ccc2cc[nH]c2c1)c1ccccc1 (centres unmarked) [Compound 213]
75 | > 30 | O=C(NCC1CCC1)Nc1ccc2cc[nH]c2c1 [Compound 216]
76 | > 30 | CC(C)(C)n1cc(NC(=O)Nc2ccc3cc[nH]c3c2)cn1 [Compound 218]
77 | > 30 | O=C(NCc1cnccn1)Nc1ccc2cc[nH]c2c1 [Compound 219]
78 | > 30 | O=C(Nc1ccc2cc[nH]c2c1)Nc1cnccn1 [Compound 220]
79 | > 30 | O=C(NCc1ccc(F)c(F)c1)Nc1ccc2cc[nH]c2c1 [Compound 221]
80 | > 30 | Cc1ccc(CNC(=O)Nc2ccc3cc[nH]c3c2)cc1C [Compound 223]
